Test results as given in US10000791B2, “Measurement method for human pancreatic lipase activity” (ASAHI KASEI PHARMA CORPORATION, priority 2013, dated 2018).

Molecular target: T1, human pancreatic lipase (Homo sapiens, UniProt P16233)
T1 construct: As a sample, pooled serum or a control sample (a control containing a pancreatic lipase) was used; from tissue; host or cells: human serum (pooled serum, normal samples, heparin-administered samples) and control sera
T1 sequence (P16233 17-465): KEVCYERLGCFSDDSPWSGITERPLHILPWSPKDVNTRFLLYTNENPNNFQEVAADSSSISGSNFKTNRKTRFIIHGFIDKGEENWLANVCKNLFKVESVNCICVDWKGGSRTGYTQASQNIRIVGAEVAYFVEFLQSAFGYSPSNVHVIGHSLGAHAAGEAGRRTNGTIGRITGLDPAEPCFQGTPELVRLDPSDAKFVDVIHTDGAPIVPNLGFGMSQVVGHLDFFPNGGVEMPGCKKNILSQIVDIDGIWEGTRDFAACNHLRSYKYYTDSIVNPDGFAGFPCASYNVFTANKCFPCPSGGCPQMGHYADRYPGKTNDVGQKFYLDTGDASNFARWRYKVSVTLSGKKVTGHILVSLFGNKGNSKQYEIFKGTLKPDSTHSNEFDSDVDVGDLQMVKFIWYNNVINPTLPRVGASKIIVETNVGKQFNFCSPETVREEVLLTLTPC
Assay: lipase activity measured in control, normal and heparin-administered samples with each reagent (1,2-dioleoyl glycerol, UV method; Liquitech Lipase Color II for verification)
Type: biochemical
Details: Recombinant pancreatic lp-containing serum

SMILES | lipase activity (Table 5) (pH 7.0) | lipase activity (Table 5) (pH 7.95) | lipase activity (Table 3) (pH 6.2) | lipase activity (Table 3) (pH 6.4) | lipase activity (Table 3) (pH 6.6) | lipase activity (Table 3) (pH 6.9) | lipase activity (Table 3) (pH 7.2) | lipase activity (Table 3) (pH 7.4) | lipase activity (Table 3) (pH 7.6)
C[C@H](CCC(=O)NCC(=O)[O-])[C@H]1CC[C@H]2[C@@H]3[C@H](O)C[C@@H]4C[C@H](O)CC[C@]4(C)[C@H]3CC[C@]12C.[Na+] [NaGCDCA, sodium glycochenodeoxycholate] | 166.1 U/L | 72.4 U/L | – | – | – | – | – | – | –
C[C@H](CCC(=O)NCCS(=O)(=O)[O-])[C@H]1CC[C@H]2[C@@H]3CC[C@@H]4C[C@H](O)CC[C@]4(C)[C@H]3C[C@H](O)[C@]12C.[Na+] [NaTDCA, sodium taurodeoxycholate] | – | – | 180.8 U/L | 184.7 U/L | 211.9 U/L | 233.1 U/L | 229.8 U/L | 217.3 U/L | 168.8 U/L
